PubChem BioAssay (NCI)
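Here, GI50 denotes the concentration required for 50% inhibition of growth. TGI denotes the concentration required for complete inhibition of growth.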

How the values were obtained:
Test in all cases: inhibition of tumour cell growth, NCI panel, 384-well format
[1] = tested on: A498 renal
[2] = tested on: A549 NSCLC
[3] = tested on: ACHN renal
[4] = tested on: BT-549 breast
[5] = tested on: CAKI-1 renal
[6] = tested on: COLO 205 colon
[7] = tested on: DU-145 prostate
[8] = tested on: EKVX NSCLC
[9] = tested on: HCC-2998 colon
[10] = tested on: HCT-116 colon
[11] = tested on: HCT-15 colon
[12] = tested on: HL-60(TB) leukemia
[13] = tested on: HOP-62 NSCLC
[14] = tested on: HOP-92 NSCLC
[15] = tested on: HS 578T breast
[16] = tested on: HT29 colon
[17] = tested on: IGROV1 ovarian
[18] = tested on: KM12 colon
[19] = tested on: LOX IMVI melanoma
[20] = tested on: M14 melanoma
[21] = tested on: MCF7 breast
[22] = tested on: MDA-MB-231 breast
[23] = tested on: MDA-MB-435 melanoma
[24] = tested on: MDA-MB-468 breast
[25] = tested on: MOLT-4 leukemia
[26] = tested on: NCI-H226 lung
[27] = tested on: NCI-H322M lung
[28] = tested on: NCI-H460 NSCLC
[29] = tested on: NCI-H522 lung
[30] = tested on: NCI/ADR-RES ovarian
[31] = tested on: OVCAR-3 ovarian
[32] = tested on: OVCAR-4 ovarian
[33] = tested on: PC-3 prostate
[34] = tested on: RPMI-8226 leukemia
[35] = tested on: RXF 393 renal
[36] = tested on: SF-268 CNS
[37] = tested on: SF-539 CNS
[38] = tested on: SK-MEL-28 melanoma
[39] = tested on: SK-MEL-5 melanoma
[40] = tested on: SK-OV-3 ovarian
[41] = tested on: SN12C renal
[42] = tested on: SNB-19 CNS
[43] = tested on: SNB-75 CNS
[44] = tested on: SR leukemia
[45] = tested on: T-47D breast
[46] = tested on: TK-10 renal
[47] = tested on: U251 glioblastoma
[48] = tested on: UACC-257 melanoma
[49] = tested on: UACC-62 melanoma

N#CCCNc1nonc1-c1nc2ccccc2n1CC(=O)c1ccc(N)cc1
GI50 [1]: < 10 nM | TGI [1]: 36.5 nM | GI50 [2]: 22.7 nM | TGI [2]: > 100000 nM | GI50 [3]: < 10 nM | TGI [3]: 37300 nM | GI50 [4]: < 10 nM | TGI [4]: 35 nM | GI50 [5]: < 10 nM | TGI [5]: > 100000 nM | GI50 [6]: 20.7 nM | TGI [6]: 56.6 nM | GI50 [7]: 20.8 nM | TGI [7]: 47.4 nM | GI50 [8]: < 10 nM | TGI [8]: > 100000 nM | GI50 [9]: 15 nM | TGI [9]: 47.5 nM | GI50 [10]: < 10 nM | TGI [10]: > 100000 nM | GI50 [11]: 16.7 nM | TGI [11]: 48.6 nM | GI50 [12]: < 10 nM | TGI [12]: 16 nM | GI50 [13]: < 10 nM | TGI [13]: 503 nM | GI50 [14]: 30.5 nM | TGI [14]: > 100000 nM | GI50 [15]: < 10 nM | TGI [15]: 11.4 nM | GI50 [16]: 21 nM | TGI [16]: > 100000 nM | GI50 [17]: 19.5 nM | TGI [17]: 39300 nM | GI50 [18]: < 10 nM | TGI [18]: > 100000 nM | GI50 [19]: 19 nM | TGI [19]: 44.2 nM | GI50 [20]: < 10 nM | TGI [20]: 21 nM | GI50 [21]: < 10 nM | TGI [21]: > 100000 nM | GI50 [22]: 59 nM | TGI [22]: > 100000 nM | GI50 [23]: < 10 nM | TGI [23]: < 10 nM | GI50 [24]: < 10 nM | TGI [24]: < 10 nM | GI50 [25]: 19.2 nM | TGI [25]: 33.7 nM | GI50 [26]: < 10 nM | TGI [26]: 22.8 nM | GI50 [27]: 53.1 nM | TGI [27]: > 100000 nM | GI50 [28]: < 10 nM | TGI [28]: 20 nM | GI50 [29]: < 10 nM | TGI [29]: < 10 nM | GI50 [30]: < 10 nM | TGI [30]: < 10 nM | GI50 [31]: < 10 nM | TGI [31]: 14 nM | GI50 [32]: < 10 nM | TGI [32]: 2330 nM | GI50 [33]: 15.9 nM | TGI [33]: > 100000 nM | GI50 [34]: < 10 nM | TGI [34]: 22.2 nM | GI50 [35]: < 10 nM | TGI [35]: 10300 nM | GI50 [36]: < 10 nM | TGI [36]: 51100 nM | GI50 [37]: < 10 nM | TGI [37]: 25.7 nM | GI50 [38]: 101 nM | TGI [38]: > 100000 nM | GI50 [39]: < 10 nM | TGI [39]: 17 nM | GI50 [40]: < 10 nM | TGI [40]: > 100000 nM | GI50 [41]: 12.2 nM | TGI [41]: 88.2 nM | GI50 [42]: < 10 nM | TGI [42]: 92 nM | GI50 [43]: 12 nM | TGI [43]: > 100000 nM | GI50 [44]: < 10 nM | TGI [44]: < 10 nM | GI50 [45]: 1870 nM | TGI [45]: > 100000 nM | GI50 [46]: < 10 nM | TGI [46]: > 100000 nM | GI50 [47]: < 10 nM | TGI [47]: 40.7 nM | GI50 [48]: < 10 nM | TGI [48]: > 100000 nM | GI50 [49]: < 10 nM | TGI [49]: > 100000 nM
